Laboratory results from patent US20210309978A1, “POLYNUCLEOTIDE SEQUENCE ENCODING A LOCAL SOURCED NOVEL ESTERASE” (ISTANBUL TEKNIK UNIVERSITESI, priority 2018, published 2021).
Read-outs that look alike come from different tables or passages of the source.

Columns and labels:
esterase enzyme [1] = test: Effects of inhibitors and detergents on enzyme activity; format: biochemical, microflora of Ac1göl (Aci Lake)
esterase enzyme [2] = test: Effect of solutions (solvents) on enzyme activity; format: biochemical, microflora of Ac1göl (Aci Lake); details: for Effect of solutions on activity, Activity (%): 10% solution added into the reaction
Protocol: (§1) 6. […] The final concentration of the enzyme and substrate have been 1 μM and 1 mM respectively and absorbance measurements have been taken at 410 nm. The activity has been calculated by means of the below formula and one unit of activity has been defined as the enzyme amount which produces 1 μmol product in 1 minute.
(§2) Activity (U/L)=[(ΔAbs/t)/(ε*d)]*106*Vt/Vs • ΔAbs=Absorbance change; t=time (minute); ε=extinction coefficient (M−1 cm−1); d=light path (cm); Vt=total reaction volume; Vs=enzyme volume used in reaction.
(§3) Additionally, the effect of different solutions (hexane, chloroform, acetone, dimethyl formamide (DMF), dimethyl sulphoxide (DMSO), 2-propanol, butanol, 1-propanol, ethanol, methanol and glycerol) on the activity and stability of the enzyme have been measured. In the activity tests, 10% solution has been added into the reaction and in the stability tests the enzyme has been incubated for 24 hours in a buffer solution containing 15% and 30% solution.

esterase enzyme [3] = test: Effect of solutions (solvents) on enzyme stability (24 hours incubation); format: biochemical, microflora of Ac1göl (Aci Lake); details: for Effect of solutions on stability, Activity (%) 15% Solution: enzyme incubated 24 hours in buffer containing 15% solution; for Effect of solutions on stability, Activity (%) 30% Solution: enzyme incubated 24 hours in buffer containing 30% solution
Protocol: as §1, §2, §3

esterase enzyme [4] = test: Effect of metals on enzyme activity; format: biochemical, microflora of Ac1göl (Aci Lake); details: for Metal tolerance, This study: the enzyme of the invention in presence of metal ion
[5] = system: heavy metal-resistant, thermophilic esterase from a Red Sea Brine Pool; details: literature enzyme in presence of metal ion; cited from earlier work
[6] = system: thermophilic and halophilic esterase from Janibacter sp. R02; details: literature enzyme in presence of metal ion; cited from earlier work
[7] = system: Salt-Tolerant Esterase from the Deep-Sea Sediment of the South China Sea; details: literature enzyme in presence of metal ion; cited from earlier work
[8] = system: new true lipase isolated through metagenomic approach; details: literature enzyme in presence of metal ion; cited from earlier work

Triton X-100
Activity (%) (1 mM inh.) (esterase enzyme [1]; 1 mM inh.): 105.3 ± 2.4%
Activity (%) (5 mM inh.) (esterase enzyme [1]; 5 mM inh.): 87.7 ± 3.2%

CCCCCCCCCCCCCCCC[N+](C)(C)C.[Br-] [CTAB, cetrimonium bromide]
Activity (%) (1 mM inh.) (esterase enzyme [1]; 1 mM inh.): 91 ± 6.6%
Activity (%) (5 mM inh.) (esterase enzyme [1]; 5 mM inh.): 1.3 ± 0.3%

CO [Methanol, methanol]
Effect of solutions on activity, Activity (%) (esterase enzyme [2]): 81.1 ± 1.1%
Effect of solutions on activity, Activity (%) (esterase enzyme [2]; listed as methanol): 81%
Effect of solutions on stability, Activity (%) 15% Solution (esterase enzyme [3]): 108.5 ± 0.2%
Effect of solutions on stability, Activity (%) 30% Solution (esterase enzyme [3]): 99.4 ± 6.6%

[Cu+2] [Cu^2+]
Metal tolerance, This study (esterase enzyme [4]): 118
Metal tolerance, Mohamed et al, 2013 [5]: 95
Metal tolerance, Castilla et al, 2017 [6]: 60
Metal tolerance, Zhang et al, 2017 [7]: 82

O=S(=O)(F)Cc1ccccc1 [PMSF, phenylmethanesulfonyl fluoride]
Activity (%) (1 mM inh.) (esterase enzyme [1]; 1 mM inh.): 1.3 ± 0.1%
Activity (%) (5 mM inh.) (esterase enzyme [1]; 5 mM inh.): 0.2%

CCO [Ethanol, ethanol]
Effect of solutions on activity, Activity (%) (esterase enzyme [2]): 45.1 ± 0.3%
Effect of solutions on stability, Activity (%) 15% Solution (esterase enzyme [3]): 105.9 ± 4.7%
Effect of solutions on stability, Activity (%) 30% Solution (esterase enzyme [3]): 98.2 ± 0.5%

[Ag+] [Ag^+]
Metal tolerance, This study (esterase enzyme [4]): 32
Metal tolerance, Glogauer et al, 2011 [8]: 8

O=S(=O)([O-])[O-].[Zn+2] [ZnSO4]
Activity (%) (1 mM metal) (esterase enzyme [4]; 1 mM metal): 6.1 ± 3.1%
Activity (%) (5 mM metal) (esterase enzyme [4]; 5 mM metal): 1.3 ± 1.2%

[Fe+2] [Fe^2+]
Metal tolerance, This study (esterase enzyme [4]): 116
Metal tolerance, Glogauer et al, 2011 [8]: 33
Metal tolerance, Castilla et al, 2017 [6]: 55
Metal tolerance, Zhang et al, 2017 [7]: 85

[Cl-].[K+] [KCl]
Activity (%) (1 mM metal) (esterase enzyme [4]; 1 mM metal): 127.9 ± 3.9%
Activity (%) (5 mM metal) (esterase enzyme [4]; 5 mM metal): 98.2 ± 3.4%

[Zn+2] [Zn^2+]
Metal tolerance, This study (esterase enzyme [4]): 6
Metal tolerance, Glogauer et al, 2011 [8]: 45
Metal tolerance, Mohamed et al, 2013 [5]: 85
Metal tolerance, Castilla et al, 2017 [6]: 160
Metal tolerance, Zhang et al, 2017 [7]: 25

O=S(=O)([O-])[O-].[Fe+2] [FeSO4]
Activity (%) (1 mM metal) (esterase enzyme [4]; 1 mM metal): 115.7 ± 2.3%
Activity (%) (5 mM metal) (esterase enzyme [4]; 5 mM metal): 0.0%

O[C@H](CS)[C@H](O)CS (racemic) [DTT, dithiothreitol]
Activity (%) (1 mM inh.) (esterase enzyme [1]; 1 mM inh.): 36.7 ± 2.4%
Activity (%) (5 mM inh.) (esterase enzyme [1]; 5 mM inh.): 25.1 ± 0.8%

[Cl-].[Cl-].[Mg+2] [MgCl2]
Activity (%) (1 mM metal) (esterase enzyme [4]; 1 mM metal): 130.2 ± 0.6%
Activity (%) (5 mM metal) (esterase enzyme [4]; 5 mM metal): 104.6 ± 3%

butanol
Effect of solutions on activity, Activity (%) (esterase enzyme [2]): 3.3 ± 3.3%
Effect of solutions on stability, Activity (%) 15% Solution (esterase enzyme [3]): 97.1 ± 3.3%
Effect of solutions on stability, Activity (%) 30% Solution (esterase enzyme [3]): 104.9 ± 2.4%

O=[N+]([O-])[O-].[Ag+] [AgNO3]
Activity (%) (1 mM metal) (esterase enzyme [4]; 1 mM metal): 31.6 ± 6.5%
Activity (%) (5 mM metal) (esterase enzyme [4]; 5 mM metal): 0.0%

[Co+2] [Co^2+]
Metal tolerance, This study (esterase enzyme [4]): 113
Metal tolerance, Glogauer et al, 2011 [8]: 54
Metal tolerance, Mohamed et al, 2013 [5]: 104
Metal tolerance, Castilla et al, 2017 [6]: 50
Metal tolerance, Zhang et al, 2017 [7]: 85

O=S(=O)([O-])[O-].[Mn+2] [MnSO4]
Activity (%) (1 mM metal) (esterase enzyme [4]; 1 mM metal): 130.4 ± 0.4%
Activity (%) (5 mM metal) (esterase enzyme [4]; 5 mM metal): 110.3 ± 3.5%

[Cl][Ni][Cl] [NiCl2]
Activity (%) (1 mM metal) (esterase enzyme [4]; 1 mM metal): 110.4 ± 6.1%
Activity (%) (5 mM metal) (esterase enzyme [4]; 5 mM metal): 0.5%

[Mg+2] [mg^2+]
Metal tolerance, This study (esterase enzyme [4]): 130
Metal tolerance, Glogauer et al, 2011 [8]: 65
Metal tolerance, Mohamed et al, 2013 [5]: 91
Metal tolerance, Castilla et al, 2017 [6]: 160
Metal tolerance, Zhang et al, 2017 [7]: 97

OCC(O)CO [Glycerol, glycerol]
Effect of solutions on activity, Activity (%) (esterase enzyme [2]): 104.2 ± 6.2%
increase of activity (esterase enzyme [2]; in the presence of 10% solvents): 4%
Effect of solutions on stability, Activity (%) 15% Solution (esterase enzyme [3]): 113.3 ± 1.8%
Effect of solutions on stability, Activity (%) 30% Solution (esterase enzyme [3]): 106.9 ± 3.1%

[Al+3] [Al^3+]
Metal tolerance, This study (esterase enzyme [4]): 91
Metal tolerance, Glogauer et al, 2011 [8]: 45

[Ca+2] [Ca^2+]
Metal tolerance, This study (esterase enzyme [4]): 130
Metal tolerance, Glogauer et al, 2011 [8]: 73
Metal tolerance, Mohamed et al, 2013 [5]: 95
Metal tolerance, Castilla et al, 2017 [6]: 110
Metal tolerance, Zhang et al, 2017 [7]: 95

[Ca+2].[Cl-].[Cl-] [CaCl2]
Activity (%) (1 mM metal) (esterase enzyme [4]; 1 mM metal): 130.2 ± 1.7%
Activity (%) (5 mM metal) (esterase enzyme [4]; 5 mM metal): 105.1 ± 1.4%

CN(C)C=O [DMF, dimethyl formamide]
Effect of solutions on activity, Activity (%) (esterase enzyme [2]): 33.2 ± 7.0%
Effect of solutions on stability, Activity (%) 15% Solution (esterase enzyme [3]): 121.3 ± 1.6%
Effect of solutions on stability, Activity (%) 30% Solution (esterase enzyme [3]): 105.3 ± 1.6%

CCCCCCCCCCCCOS(=O)(=O)[O-].[Na+] [SDS, sodium dodecyl sulphate]
Activity (%) (1 mM inh.) (esterase enzyme [1]; 1 mM inh.): 85.6 ± 2.9%
Activity (%) (5 mM inh.) (esterase enzyme [1]; 5 mM inh.): 5.0 ± 0.8%

[K+] [K^+]
Metal tolerance, This study (esterase enzyme [4]): 128
Metal tolerance, Glogauer et al, 2011 [8]: 122
Metal tolerance, Castilla et al, 2017 [6]: 90
Metal tolerance, Zhang et al, 2017 [7]: 108

ClC(Cl)Cl [Chloroform, chloroform]
Effect of solutions on activity, Activity (%) (esterase enzyme [2]): 5.1 ± 0.8%
Effect of solutions on stability, Activity (%) 15% Solution (esterase enzyme [3]): 97.9 ± 1.4%
Effect of solutions on stability, Activity (%) 30% Solution (esterase enzyme [3]): 100.2 ± 5.6%

CC(C)O [2-Propanol, 2-propanol]
Effect of solutions on activity, Activity (%) (esterase enzyme [2]): 21.4 ± 1.6%
Effect of solutions on stability, Activity (%) 15% Solution (esterase enzyme [3]): 104.3 ± 1.2%
Effect of solutions on stability, Activity (%) 30% Solution (esterase enzyme [3]): 62.3 ± 4.3%

CCCCCC [Hexane, hexane]
Effect of solutions on activity, Activity (%) (esterase enzyme [2]): 22.6 ± 4.9%
Effect of solutions on stability, Activity (%) 15% Solution (esterase enzyme [3]): 113.6 ± 8.5%
Effect of solutions on stability, Activity (%) 30% Solution (esterase enzyme [3]): 100.2 ± 4.9%

1-propanol
Effect of solutions on activity, Activity (%) (esterase enzyme [2]): 2.6 ± 2.4%
Effect of solutions on stability, Activity (%) 15% Solution (esterase enzyme [3]): 85.7 ± 2.6%
Effect of solutions on stability, Activity (%) 30% Solution (esterase enzyme [3]): 23.3 ± 5.4%

O=S(=O)([O-])[O-].[Cu+2] [CuSO4]
Activity (%) (1 mM metal) (esterase enzyme [4]; 1 mM metal): 117.5 ± 5%
Activity (%) (5 mM metal) (esterase enzyme [4]; 5 mM metal): 1.4 ± 1.1%

[Cl-].[Cl-].[Co+2] [CoCl2]
Activity (%) (1 mM metal) (esterase enzyme [4]): 112.7 ± 3.4%
Activity (%) (5 mM metal) (esterase enzyme [4]): 3.6 ± 1.0%

O=C(O)CN(CCN(CC(=O)O)CC(=O)O)CC(=O)O [EDTA, ethylene diamine tetraacetic acid]
Activity (%) (1 mM inh.) (esterase enzyme [1]; 1 mM inh.): 89.6 ± 1.7%
Activity (%) (5 mM inh.) (esterase enzyme [1]; 5 mM inh.): 66.5 ± 1.2%

[Mn+2] [Mn^2+]
Metal tolerance, This study (esterase enzyme [4]): 130
Metal tolerance, Glogauer et al, 2011 [8]: 47
Metal tolerance, Mohamed et al, 2013 [5]: 112
Metal tolerance, Castilla et al, 2017 [6]: 75
Metal tolerance, Zhang et al, 2017 [7]: 76

[Ni+2] [Ni^2+]
Metal tolerance, This study (esterase enzyme [4]): 110
Metal tolerance, Glogauer et al, 2011 [8]: 66
Metal tolerance, Castilla et al, 2017 [6]: 75
Metal tolerance, Zhang et al, 2017 [7]: 68

O=C(O)CN(CCOCCOCCN(CC(=O)O)CC(=O)O)CC(=O)O [EGTA, ethylene glycol tetraacetic acid]
Activity (%) (1 mM inh.) (esterase enzyme [1]): 100.2 ± 2.1%
Activity (%) (5 mM inh.) (esterase enzyme [1]): 87.6 ± 3.9%

Tween-80
Activity (%) (1 mM inh.) (esterase enzyme [1]; 1 mM inh.): 107.2 ± 7.9%
Activity (%) (5 mM inh.) (esterase enzyme [1]; 5 mM inh.): 80.7 ± 2.2%

O=S(=O)([O-])[O-].O=S(=O)([O-])[O-].O=S(=O)([O-])[O-].[Al+3].[Al+3] [Al2SO4]
Activity (%) (1 mM metal) (esterase enzyme [4]; 1 mM metal): 91.2 ± 9.8%
Activity (%) (5 mM metal) (esterase enzyme [4]; 5 mM metal): 0.0%

C[S+](C)[O-] [DMSO, dimethyl sulphoxide]
Effect of solutions on activity, Activity (%) (esterase enzyme [2]): 92%
Effect of solutions on stability, Activity (%) 15% Solution (esterase enzyme [3]): 106.1 ± 0.9%
Effect of solutions on stability, Activity (%) 30% Solution (esterase enzyme [3]): 102.2 ± 4.8%

CC(C)=O [Acetone, acetone]
Effect of solutions on activity, Activity (%) (esterase enzyme [2]): 36 ± 4.9%
Effect of solutions on stability, Activity (%) 15% Solution (esterase enzyme [3]): 113.7 ± 2.5%
Effect of solutions on stability, Activity (%) 30% Solution (esterase enzyme [3]): 85.2 ± 5.6%

NP-40
Activity (%) (1 mM inh.) (esterase enzyme [1]; 1 mM inh.): 101.9 ± 6.8%
Activity (%) (5 mM inh.) (esterase enzyme [1]; 5 mM inh.): 89.1 ± 1.5%
